Assay results taken from PubChem BioAssay (NCI).
Converted amounts (≈) assume the structure as drawn.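 1) Cells in 96-well plates. 2) Compound, 48 h, 5 concentrations. 3) Linear interpolation between surrounding doses. 4) Unreached endpoint = highest concentration. GI50 = concentration required for 50% inhibition of growth. TGI: concentration producing complete growth inhibition.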

Tested on: SK-MEL-28 melanoma
Experiment: NCI-60 cell line screen, 48 h

SMILES	TGI	GI50 [µg/mL]
Oc1cc(Cl)cc2cccnc12	> 100 µM	–
COc1cc(N(CCC#N)CCC#N)ccc1/C(N=Nc1ccc(Cl)cc1)=N/NC(=O)c1cc(Br)ccc1O	> 150 µg/mL	> 150
O=[N+]([O-])c1ccc2occ3c2c1CCC3	> 100 µM	–
Cc1c2n(c(=O)[nH]c1=O)C1OC(CO)C(N=[N+]=[N-])C1O2 (centres undefined)	> 100 µM	–
O=C(O)CCNc1ncnc2nc[nH]c12	> 100 µM	–
Nc1c(C(=O)N/N=C/c2ccccc2)sc(=S)n1-c1ccccc1	> 100 µM	–

Tested on: KM12 colon
Experiment: NCI-60 cell line screen, 48 h

SMILES	TGI	GI50 [µg/mL]
Oc1cc(Cl)cc2cccnc12	> 100 µM	–
COc1cc(N(CCC#N)CCC#N)ccc1/C(N=Nc1ccc(Cl)cc1)=N/NC(=O)c1cc(Br)ccc1O	129 µg/mL	48 (≈ 78.8 µM)
O=[N+]([O-])c1ccc2occ3c2c1CCC3	> 100 µM	–
Cc1c2n(c(=O)[nH]c1=O)C1OC(CO)C(N=[N+]=[N-])C1O2 (centres undefined)	> 100 µM	–
O=C(O)CCNc1ncnc2nc[nH]c12	> 100 µM	–
Nc1c(C(=O)N/N=C/c2ccccc2)sc(=S)n1-c1ccccc1	> 100 µM	–

Tested on: SF-268 CNS
Experiment: NCI-60 cell line screen, 48 h

SMILES	TGI	GI50 [µg/mL]
Oc1cc(Cl)cc2cccnc12	> 39.5 µM	–
COc1cc(N(CCC#N)CCC#N)ccc1/C(N=Nc1ccc(Cl)cc1)=N/NC(=O)c1cc(Br)ccc1O	> 150 µg/mL	35 (≈ 57.5 µM)
O=[N+]([O-])c1ccc2occ3c2c1CCC3	> 100 µM	–
Cc1c2n(c(=O)[nH]c1=O)C1OC(CO)C(N=[N+]=[N-])C1O2 (centres undefined)	> 100 µM	–
O=C(O)CCNc1ncnc2nc[nH]c12	> 100 µM	–
Nc1c(C(=O)N/N=C/c2ccccc2)sc(=S)n1-c1ccccc1	> 100 µM	–

Tested on: SK-OV-3 ovarian
Experiment: NCI-60 cell line screen, 48 h

SMILES	TGI	GI50 [µg/mL]
Oc1cc(Cl)cc2cccnc12	> 100 µM	–
COc1cc(N(CCC#N)CCC#N)ccc1/C(N=Nc1ccc(Cl)cc1)=N/NC(=O)c1cc(Br)ccc1O	> 150 µg/mL	90.8 (≈ 149 µM)
O=[N+]([O-])c1ccc2occ3c2c1CCC3	> 100 µM	–
Cc1c2n(c(=O)[nH]c1=O)C1OC(CO)C(N=[N+]=[N-])C1O2 (centres undefined)	> 100 µM	–
O=C(O)CCNc1ncnc2nc[nH]c12	> 100 µM	–
Nc1c(C(=O)N/N=C/c2ccccc2)sc(=S)n1-c1ccccc1	> 100 µM	–

Tested on: SK-MEL-5 melanoma
Experiment: NCI-60 cell line screen, 48 h

SMILES	TGI	GI50 [µg/mL]
Oc1cc(Cl)cc2cccnc12	13.4 µM	–
COc1cc(N(CCC#N)CCC#N)ccc1/C(N=Nc1ccc(Cl)cc1)=N/NC(=O)c1cc(Br)ccc1O	> 150 µg/mL	82 (≈ 135 µM)
O=[N+]([O-])c1ccc2occ3c2c1CCC3	> 100 µM	–
Cc1c2n(c(=O)[nH]c1=O)C1OC(CO)C(N=[N+]=[N-])C1O2 (centres undefined)	> 100 µM	–
O=C(O)CCNc1ncnc2nc[nH]c12	> 100 µM	–
Nc1c(C(=O)N/N=C/c2ccccc2)sc(=S)n1-c1ccccc1	> 100 µM	–

Tested on: KM20L2 colon
Experiment: NCI-60 cell line screen, 48 h

SMILES	TGI [µM]
Cc1c2n(c(=O)[nH]c1=O)C1OC(CO)C(N=[N+]=[N-])C1O2 (centres undefined)	> 100

Tested on: M19-MEL melanoma
Experiment: NCI-60 cell line screen, 48 h

SMILES	TGI [µM]
O=[N+]([O-])c1ccc2occ3c2c1CCC3	> 100
Cc1c2n(c(=O)[nH]c1=O)C1OC(CO)C(N=[N+]=[N-])C1O2 (centres undefined)	> 100
Nc1c(C(=O)N/N=C/c2ccccc2)sc(=S)n1-c1ccccc1	> 100

Tested on: HL-60(TB) leukemia
Experiment: NCI-60 cell line screen, 48 h

SMILES	TGI	GI50 [µg/mL]
Oc1cc(Cl)cc2cccnc12	0.727 µM	–
COc1cc(N(CCC#N)CCC#N)ccc1/C(N=Nc1ccc(Cl)cc1)=N/NC(=O)c1cc(Br)ccc1O	> 150 µg/mL	62.1 (≈ 102 µM)
O=[N+]([O-])c1ccc2occ3c2c1CCC3	> 100 µM	–
Cc1c2n(c(=O)[nH]c1=O)C1OC(CO)C(N=[N+]=[N-])C1O2 (centres undefined)	> 100 µM	–
O=C(O)CCNc1ncnc2nc[nH]c12	> 100 µM	–
Nc1c(C(=O)N/N=C/c2ccccc2)sc(=S)n1-c1ccccc1	> 100 µM	–

Tested on: HT29 colon
Experiment: NCI-60 cell line screen, 48 h

SMILES	TGI	GI50 [µg/mL]
Oc1cc(Cl)cc2cccnc12	32.2 µM	–
COc1cc(N(CCC#N)CCC#N)ccc1/C(N=Nc1ccc(Cl)cc1)=N/NC(=O)c1cc(Br)ccc1O	> 150 µg/mL	45.5 (≈ 74.7 µM)
O=[N+]([O-])c1ccc2occ3c2c1CCC3	> 100 µM	–
Cc1c2n(c(=O)[nH]c1=O)C1OC(CO)C(N=[N+]=[N-])C1O2 (centres undefined)	> 100 µM	–
O=C(O)CCNc1ncnc2nc[nH]c12	> 100 µM	–
Nc1c(C(=O)N/N=C/c2ccccc2)sc(=S)n1-c1ccccc1	> 100 µM	–

Tested on: LXFL 529 NSCLC
Experiment: NCI-60 cell line screen, 48 h

SMILES	TGI [µM]
O=[N+]([O-])c1ccc2occ3c2c1CCC3	> 100
Cc1c2n(c(=O)[nH]c1=O)C1OC(CO)C(N=[N+]=[N-])C1O2 (centres undefined)	> 100
Nc1c(C(=O)N/N=C/c2ccccc2)sc(=S)n1-c1ccccc1	> 100

Tested on: BT-549 breast
Experiment: NCI-60 cell line screen, 48 h

SMILES	TGI	GI50 [µg/mL]
Oc1cc(Cl)cc2cccnc12	> 91.1 µM	–
COc1cc(N(CCC#N)CCC#N)ccc1/C(N=Nc1ccc(Cl)cc1)=N/NC(=O)c1cc(Br)ccc1O	> 150 µg/mL	140 (≈ 229 µM)
O=C(O)CCNc1ncnc2nc[nH]c12	> 100 µM	–

Tested on: HS 578T breast
Experiment: NCI-60 cell line screen, 48 h

SMILES	TGI	GI50 [µg/mL]
Oc1cc(Cl)cc2cccnc12	> 48.5 µM	–
COc1cc(N(CCC#N)CCC#N)ccc1/C(N=Nc1ccc(Cl)cc1)=N/NC(=O)c1cc(Br)ccc1O	> 150 µg/mL	125 (≈ 206 µM)
O=C(O)CCNc1ncnc2nc[nH]c12	> 100 µM	–

Tested on: RXF 393 renal
Experiment: NCI-60 cell line screen, 48 h

SMILES	TGI	GI50 [µg/mL]
Oc1cc(Cl)cc2cccnc12	42.9 µM	–
COc1cc(N(CCC#N)CCC#N)ccc1/C(N=Nc1ccc(Cl)cc1)=N/NC(=O)c1cc(Br)ccc1O	> 150 µg/mL	36.9 (≈ 60.6 µM)
O=[N+]([O-])c1ccc2occ3c2c1CCC3	> 100 µM	–
Cc1c2n(c(=O)[nH]c1=O)C1OC(CO)C(N=[N+]=[N-])C1O2 (centres undefined)	> 100 µM	–
O=C(O)CCNc1ncnc2nc[nH]c12	> 100 µM	–

Tested on: DMS 114 small cell lung
Experiment: NCI-60 cell line screen, 48 h

SMILES	TGI [µM]
O=[N+]([O-])c1ccc2occ3c2c1CCC3	> 100
Cc1c2n(c(=O)[nH]c1=O)C1OC(CO)C(N=[N+]=[N-])C1O2 (centres undefined)	> 100

Tested on: DU-145 prostate
Experiment: NCI-60 cell line screen, 48 h

SMILES	TGI	GI50 [µg/mL]
Oc1cc(Cl)cc2cccnc12	> 89.7 µM	–
COc1cc(N(CCC#N)CCC#N)ccc1/C(N=Nc1ccc(Cl)cc1)=N/NC(=O)c1cc(Br)ccc1O	> 150 µg/mL	143 (≈ 235 µM)
O=C(O)CCNc1ncnc2nc[nH]c12	> 100 µM	–

Tested on: HCT-116 colon
Experiment: NCI-60 cell line screen, 48 h

SMILES	TGI	GI50 [µg/mL]
Oc1cc(Cl)cc2cccnc12	> 23.3 µM	–
COc1cc(N(CCC#N)CCC#N)ccc1/C(N=Nc1ccc(Cl)cc1)=N/NC(=O)c1cc(Br)ccc1O	> 150 µg/mL	53.2 (≈ 87.3 µM)
O=[N+]([O-])c1ccc2occ3c2c1CCC3	> 100 µM	–
Cc1c2n(c(=O)[nH]c1=O)C1OC(CO)C(N=[N+]=[N-])C1O2 (centres undefined)	> 100 µM	–
O=C(O)CCNc1ncnc2nc[nH]c12	> 100 µM	–
Nc1c(C(=O)N/N=C/c2ccccc2)sc(=S)n1-c1ccccc1	> 100 µM	–

Tested on: MCF7 breast
Experiment: NCI-60 cell line screen, 48 h

SMILES	TGI	GI50 [µg/mL]
Oc1cc(Cl)cc2cccnc12	7.87 µM	–
COc1cc(N(CCC#N)CCC#N)ccc1/C(N=Nc1ccc(Cl)cc1)=N/NC(=O)c1cc(Br)ccc1O	> 150 µg/mL	44.1 (≈ 72.4 µM)
O=C(O)CCNc1ncnc2nc[nH]c12	> 100 µM	–

Tested on: OVCAR-3 ovarian
Experiment: NCI-60 cell line screen, 48 h

SMILES	TGI	GI50 [µg/mL]
Oc1cc(Cl)cc2cccnc12	3.18 µM	–
COc1cc(N(CCC#N)CCC#N)ccc1/C(N=Nc1ccc(Cl)cc1)=N/NC(=O)c1cc(Br)ccc1O	> 150 µg/mL	50 (≈ 82 µM)
O=[N+]([O-])c1ccc2occ3c2c1CCC3	> 100 µM	–
Cc1c2n(c(=O)[nH]c1=O)C1OC(CO)C(N=[N+]=[N-])C1O2 (centres undefined)	> 100 µM	–
O=C(O)CCNc1ncnc2nc[nH]c12	> 100 µM	–
Nc1c(C(=O)N/N=C/c2ccccc2)sc(=S)n1-c1ccccc1	> 100 µM	–
